Measurements as given in US20250221966A1, “RXFP1 AGONISTS” (BRISTOL-MYERS SQUIBB COMPANY, priority 2021, published 2025).

Target: T1, human RXFP1 (Homo sapiens, UniProt Q9HBX9)
T1 construct: expressed in transfected cells
T1 sequence (Q9HBX9 1-757): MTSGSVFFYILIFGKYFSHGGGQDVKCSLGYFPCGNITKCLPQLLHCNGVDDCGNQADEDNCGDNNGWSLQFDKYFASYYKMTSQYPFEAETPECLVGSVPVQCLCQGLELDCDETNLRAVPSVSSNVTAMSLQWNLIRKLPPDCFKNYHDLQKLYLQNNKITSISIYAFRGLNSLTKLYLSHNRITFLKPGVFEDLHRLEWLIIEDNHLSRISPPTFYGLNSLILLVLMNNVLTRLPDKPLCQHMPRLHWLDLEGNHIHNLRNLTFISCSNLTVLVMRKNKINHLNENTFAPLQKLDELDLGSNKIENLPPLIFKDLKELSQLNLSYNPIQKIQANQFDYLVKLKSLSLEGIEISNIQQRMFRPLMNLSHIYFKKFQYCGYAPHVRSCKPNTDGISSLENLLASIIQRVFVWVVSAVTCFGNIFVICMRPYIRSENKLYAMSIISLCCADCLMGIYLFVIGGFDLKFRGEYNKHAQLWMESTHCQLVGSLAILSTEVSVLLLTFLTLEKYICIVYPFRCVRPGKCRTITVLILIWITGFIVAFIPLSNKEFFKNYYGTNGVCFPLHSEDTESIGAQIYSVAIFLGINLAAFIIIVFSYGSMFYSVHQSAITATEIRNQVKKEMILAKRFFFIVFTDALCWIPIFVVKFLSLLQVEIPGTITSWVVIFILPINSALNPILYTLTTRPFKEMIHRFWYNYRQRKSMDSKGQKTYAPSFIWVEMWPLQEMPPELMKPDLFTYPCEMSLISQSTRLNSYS
Experiment: RXFP1 cAMP assay (hRXFP1 HEK293 cAMP assay, HTRF)
Assay type: cell-based
Details: HEK293 cells stably expressing human RXFP1, 30 min at room temperature, read-out: cAMP hRXFP1 HEK293 Assay EC50
Summary of the method: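 In a stable human RXFP1 HEK293 line, compounds acted for 30 min at RT in buffer with 0.5 mM IBMX. HTRF then quantified cellular cAMP.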

Row | EC50 | Compound
1 | 0.0013 µM | COc1ccc(C2=NOC3CC(C)(CO)CC23)cc1C(=O)N[C@H]1[C@@H](C(=O)Nc2ccc(F)c(C(F)(F)F)c2)[C@H]2CC[C@@H]1/C2=C\C1CC1 (some centres unmarked) [compound 735]
2 | 0.0013 µM | COc1ccc(-c2cc(C(NC(=O)C3CCOCC3)C(=O)O)ccc2F)cc1C(=O)N[C@H]1[C@@H](C(=O)Nc2ccc(F)c(C(F)(F)F)c2)[C@H]2CC[C@@H]1/C2=C\C(C)C (some centres unmarked) [compound 942]
3 | 0.0038 µM | COc1c(F)cc(C2=NOC3CC(O)CC23)cc1C(=O)N[C@H]1[C@@H](C(=O)Nc2ccc(F)c(C(F)(F)F)c2)[C@H]2CC[C@@H]1/C2=C\C1CCCC1 (some centres unmarked) [compound 868]
4 | 0.0019 µM | COc1ccc(C2=NO[C@H]3C[C@H](CO)C[C@@H]23)cc1C(=O)N[C@H]1[C@@H](C(=O)N[C@H](C)C2(C)CC2)[C@H]2CC[C@@H]1/C2=C\C1CCCC1 [compound 817]
5 | 0.384 µM | COc1ccc(C2CCCN2C(=O)CCO)cc1C(=O)N[C@@H]1C2CCC(C2=CC2CC2)[C@@H]1C(=O)Nc1ccc(F)c(C(F)(F)F)c1 (some centres unmarked) [compound 667]
6 | 0.285 µM | COc1ccc(C2=NOC3COCC23)cc1C(=O)N[C@H]1[C@@H](C(=O)NC2(Cc3ccccc3)CC2)[C@H]2CC[C@@H]1/C2=C\C1CC1 (some centres unmarked) [compound 653]
7 | 0.0018 µM | COc1ccc(C2=NO[C@@H]3C[C@H](CO)CN23)cc1C(=O)N[C@H]1[C@@H](C(=O)Nc2ccc(F)c(C(F)(F)F)c2)[C@H]2CC[C@@H]1/C2=C\C1CC1 [compound 846]
8 | 0.0036 µM | COc1ccc(-c2cnc3n2CCC3O)cc1C(=O)N[C@H]1[C@@H](C(=O)Nc2ccc(F)c(C(F)(F)F)c2)[C@H]2CC[C@@H]1/C2=C\C1CC1 (some centres unmarked) [compound 754]
9 | 0.0061 µM | COc1ccc(C2=NOC3CC(CO)CC23)cc1C(=O)N[C@H]1[C@@H](C(=O)Nc2ccc(F)c(C(F)(F)F)c2)[C@H]2CC[C@@H]1/C2=C\CC1CC(F)(F)C1 (some centres unmarked) [compound 959]
10 | 1.09 µM | COCC1(CNC(=O)[C@@H]2[C@H](NC(=O)c3cc(C4=NOC5COCC45)ccc3OC)[C@@H]3CC[C@H]2/C3=C/C2CC2)CC1 (some centres unmarked) [compound 701]
11 | 0.36 µM | COc1ccc(C2=NOC3CCCC23)cc1C(=O)N[C@H]1[C@@H](C(=O)Nc2ccc(F)c(C(F)(F)F)c2)[C@H]2CC[C@@H]1/C2=C\C1CC1 (single isomer, unassigned) [compound 662]
12 | 0.0009 µM | COc1ccc(C2=NOC3CC(C(C)O)CC23)cc1C(=O)N[C@H]1[C@@H](C(=O)Nc2ccc(F)c(C(F)(F)F)c2)[C@H]2CC[C@@H]1/C2=C\C1CC1 (some centres unmarked) [compound 843]
13 | 0.0017 µM | COc1ccc(-c2cc(C(NC(=O)C3CCOCC3)C(=O)O)ccc2F)cc1C(=O)N[C@H]1[C@@H](C(=O)Nc2ccc(F)c(C(F)(F)F)c2)[C@H]2CC[C@@H]1/C2=C\C1CC(F)(F)C1 (some centres unmarked) [compound 943]
14 | 0.0038 µM | COc1ccc(C2=NOC3CC(O)(C(F)(F)F)CC23)cc1C(=O)N[C@H]1[C@@H](C(=O)Nc2ccc(F)c(C(F)(F)F)c2)[C@H]2CC[C@@H]1/C2=C\C1CC1 (some centres unmarked) [compound 864]

Further lines, the molecule ahead of its results:

Row | Compound | EC50
15 | COc1ccc(C2=NOC3CCCC23)cc1C(=O)N[C@@H]1C2CCC(/C2=C/C2CC2)[C@@H]1C(=O)Nc1ccc(F)c(C(F)(F)F)c1 (stereo partly drawn) [Example 439, (1R,2S,3R,4R,Z)-7-(cyclopropylmethylene)-N-(4-fluoro-3-(trifluoromethyl)phenyl)-3-(2-methoxy-5-(3a,5,6,6a-tetrahydro-4H-cyclopenta[d]isoxazol-3-yl)benzamido)bicyclo[2.2.1]heptane-2-carboxamide] | 0.03 µM
16 | COc1ccc(-c2cc(C(C)O)on2)cc1C(=O)N[C@@H]1C2CCC(/C2=C/C2CC2)[C@@H]1C(=O)Nc1ccc(F)c(C(F)(F)F)c1 (some centres unmarked) [compound 424] | 0.011 µM
17 | CNC(=O)OC(C(=O)NOC)c1ccc(F)c(-c2ccc(OC)c(C(=O)N[C@@H]3C4CCC(/C4=C/C4CC4)[C@@H]3C(=O)Nc3ccc(F)c(C(F)(F)F)c3)c2)c1 (some centres unmarked) [compound 234] | 0.001 µM
18 | COc1ccc(C2=NOC(C(C)(C)O)C2)cc1C(=O)N[C@H]1[C@@H](C(=O)Nc2ccc(F)c(C(F)(F)F)c2)[C@H]2CC[C@@H]1/C2=C\C1CC1 (single isomer, unassigned) [compound 524] | 0.0219 µM
19 | CNC(=O)OC(c1ccc(F)c(-c2ccc(OC)c(C(=O)N[C@@H]3C4CCC(/C4=C/C4CC4)[C@@H]3C(=O)Nc3ccc(F)c(C(F)(F)F)c3)c2)c1)C(F)(F)F (some centres unmarked) [compound 212] | 0.001 µM
20 | COc1ccc(-c2cc(C(N[S+]([O-])C(C)(C)C)C(F)(F)F)ccc2F)cc1C(=O)N[C@H]1[C@@H](C(=O)Nc2ccc(F)c(C(F)(F)F)c2)[C@H]2CC[C@@H]1/C2=C\C1CC1 (stereo partly drawn) [Example 256, (1R,2S,3R,4R,Z)-3-(5′-(1-((tert-butylsulfinyl)amino)-2,2,2-trifluoroethyl)-2′-fluoro-4-methoxy-[1,1′-biphenyl]-3-carboxamido)-7-(cyclopropylmethylene)-N-(4-fluoro-3-(trifluoromethyl)phenyl)bicyclo[2.2.1]heptane-2-carboxamide] | 0.014 µM
21 | COc1ccc(-c2cccn3c(C(=O)OCc4ccccc4)cnc23)cc1C(=O)N[C@@H]1C2CCC(/C2=C/C(F)(F)F)[C@@H]1C(=O)Nc1ccc(F)c(C(F)(F)F)c1 (some centres unmarked) [compound 315] | 0.06 µM
22 | COc1ccc(-c2cc(C(F)(F)F)ccc2F)cc1C(=O)N[C@@H]1C2CCC(/C2=C/C2CC(F)(F)C2)[C@@H]1C(=O)Nc1ccc(F)c(C(F)(F)F)c1 (some centres unmarked) [compound 289] | 0.548 µM
23 | COc1ccc(-c2cnc(C)nc2)cc1C(=O)N[C@H]1[C@@H](C(=O)Nc2ccc(F)c(C(F)(F)F)c2)[C@H]2CC[C@@H]1C2=C(C)C [compound 98] | 0.51 µM
24 | COc1ccc(-c2cc(C(OC(=O)NC3CCC3)C(F)(F)F)ccc2F)cc1C(=O)N[C@@H]1C2CCC(/C2=C/C2CC2)[C@@H]1C(=O)Nc1ccc(F)c(C(F)(F)F)c1 (some centres unmarked) [compound 221] | 0.026 µM
25 | COc1ccc(C2=NOC3COCC23)cc1C(=O)N[C@H]1[C@@H](C(=O)NCC2C(C)(C)C2(C)C)[C@H]2CC[C@@H]1/C2=C\C1CC1 (some centres unmarked) [compound 586] | 0.0791 µM
26 | COc1ccc(C2=NOC3(CO)CCC23CO)cc1C(=O)N[C@H]1[C@@H](C(=O)Nc2ccc(F)c(C(F)(F)F)c2)[C@H]2CC[C@@H]1/C2=C\C1CC1 (single isomer, unassigned) [compound 623] | 0.169 µM
27 | COc1ccc(-c2cccnc2F)cc1C(=O)N[C@H]1[C@@H](C(=O)Nc2ccc(F)c(C(F)(F)F)c2)[C@H]2CC[C@@H]1/C2=C\c1ccccc1 [compound 82] | 0.041 µM
28 | COc1ccc(C2=NOC3CC(C(N)=O)CC23)cc1C(=O)N[C@H]1[C@@H](C(=O)Nc2ccc(F)c(C(F)(F)F)c2)[C@H]2CC[C@@H]1/C2=C\C1CC1 (single isomer, unassigned) [compound 459] | 0.0025 µM
29 | COc1ccc(-c2cc(C3OC(=O)N(C)C3=O)ccc2F)cc1C(=O)N[C@@H]1C2CCC(/C2=C/C2CC2)[C@@H]1C(=O)Nc1ccc(F)c(C(F)(F)F)c1 (some centres unmarked) [compound 173] | 0.007 µM
30 | COc1ccc(C2=NOC3(CO)CCC23CO)cc1C(=O)N[C@H]1[C@@H](C(=O)Nc2ccc(F)c(C(F)(F)F)c2)[C@H]2CC[C@@H]1/C2=C\C1CC1 (single isomer, unassigned) [Example 461] | 0.0026 µM
31 | COc1cc(F)c(F)cc1C(=O)N[C@@H]1C2CCC(/C2=C/c2cccc(CN3CCOCC3)c2)[C@@H]1C(=O)Nc1ccc(F)c(C(F)(F)F)c1 (some centres unmarked) [compound 70] | 2.9 µM
32 | COc1ccc(C#N)cc1C(=O)N[C@@H]1C2CCC(/C2=C/c2ccccc2)[C@@H]1C(=O)Nc1ccc(F)c(C(F)(F)F)c1 (some centres unmarked) [compound 128] | 0.055 µM
